Measured values as given in patent US11738019B2, “Substituted heterocycles as antiviral agents” (ENANTA PHARMACEUTICALS, INC., priority 2019, dated 2023).
pEC50: −log10 of the molar value.

Tests used:
HBV (2.2.15 cells) = assay: HBV viral product reduction in 2.2.15 cells (qPCR / HBsAg or HBeAg ELISA); format: cell-based; conditions: Hepatitis B virus, 120 h, day 5 post treatment, concentration reducing viral product accumulation in cell lysates or supernatants by 50% relative to no drug controls
Protocol: 2.2.15 cells are passaged upon attaining confluency in DMEM/F12 media in the presence of 10% FBS, Penn/Strep, and 250 ug/mL G418. Novel compounds are 5 fold serially diluted in DMSO and added to 96 well plates containing 35,000 cells/well at a 1:200 dilution so that the final concentration of DMSO is 0.5%. On day 5, post treatment cell lysates and supernatants are harvested for analysis.
Cells are lysed using Agilent Sidestep Lysis buffer, diluted 1:100 and quantified via quantitative real time PCR. Commercially available ELISA kits are used to quantitate the viral proteins HBsAg (Alpco) or HBeAg (US Biological) by following the manufacturer's recommended protocol after diluting samples to match the linear range of their respective assays. Irrespective of readout, compound concentrations that reduce viral product accumulation in the cell lysates or supernatants by 50% relative to no drug controls (EC50) are reported; EC50 ranges are as follows: A<0.1 μM; B 0.1-1 μM; C>1 μM.

[1] = compound induced cellular toxicity in HepG2 cells (ATPlite 1Step); format: cell-based; conditions: human, three days, concentration reducing total ATP levels by 50% relative to no drug controls
Protocol: At day 3, post seeding cells are treated with ATPlite 1Step according to the manufacturer's instructions.

## CC(C)(C)[C@@H]1Cc2c(cc(N3CCC(F)(F)C3)c3ccoc23)-c2cc(=O)c(C(=O)O)cn21 [Example 19, (S)-5-(tert-butyl)-12-(3,3-difluoropyrrolidin-1-yl)-9-oxo-4,9-dihydro-5H-furo[2,3-f]pyrido[2,1-a]isoquinoline-8-carboxylic acid]
HBV (2.2.15 cells)
  pEC50: > 7.00
[1]
  CC50 at 3 days: 10 to 25 µM

## CC(C)(C)[C@@H]1Cc2c(cc(-c3ccsc3)c3occc23)-c2cc(=O)c(C(=O)O)cn21 [Example 25, (S)-5-(tert-butyl)-9-oxo-12-(thiophen-3-yl)-4,9-dihydro-5H-furo[3,2-f]pyrido[2,1-a]isoquinoline-8-carboxylic acid]
HBV (2.2.15 cells)
  pEC50: < 6.00

## CC(C)(C)[C@@H]1Cc2c(cc(Cl)c3occc23)-c2cc(=O)c(C(=O)O)cn21 [Example 1, (S)-5-(tert-butyl)-12-chloro-9-oxo-4,9-dihydro-5H-furo[3,2-f]pyrido[2,1-a]isoquinoline-8-carboxylic acid]
HBV (2.2.15 cells)
  pEC50: > 7.00
[1]
  CC50 at 3 days: > 25 µM

## CC(C)(C)[C@@H]1Cc2c(cc(N3CCCC3)c3ccoc23)-c2cc(=O)c(C(=O)O)cn21 [Example 18, (S)-5-(tert-butyl)-9-oxo-12-(pyrrolidin-1-yl)-4,9-dihydro-5H-furo[2,3-f]pyrido[2,1-a]isoquinoline-8-carboxylic acid]
HBV (2.2.15 cells)
  pEC50: > 7.00
[1]
  CC50 at 3 days: > 25 µM

## CC(C)(C)[C@@H]1Cc2c(cc(Cl)c3ccoc23)-c2cc(=O)c(C(=O)O)cn21 [Example 2, (S)-5-(tert-butyl)-12-chloro-9-oxo-4,9-dihydro-5H-furo[2,3-f]pyrido[2,1-a]isoquinoline-8-carboxylic acid]
HBV (2.2.15 cells)
  pEC50: > 7.00
[1]
  CC50 at 3 days: > 25 µM

## CC(C)(C)[C@@H]1Cc2c(cc(-c3ccn[nH]3)c3occc23)-c2cc(=O)c(C(=O)O)cn21 [Example 28, (S)-5-(tert-butyl)-9-oxo-12-(1H-pyrazol-5-yl)-4,9-dihydro-5H-furo[3,2-f]pyrido[2,1-a]isoquinoline-8-carboxylic acid]
HBV (2.2.15 cells)
  pEC50: < 6.00

## CC(C)(C)[C@@H]1Cc2c(cc(N3CCCC3)c3occc23)-c2cc(=O)c(C(=O)O)cn21 [Example 21, (S)-5-(tert-butyl)-9-oxo-12-(pyrrolidin-1-yl)-4,9-dihydro-5H-furo[3,2-f]pyrido[2,1-a]isoquinoline-8-carboxylic acid]
HBV (2.2.15 cells)
  pEC50: 6.00 to 7.00

## CC(C)(C)[C@@H]1Cc2c(cc(-c3ccco3)c3ccoc23)-c2cc(=O)c(C(=O)O)cn21 [Example 8, (S)-5-(tert-butyl)-12-(furan-2-yl)-9-oxo-4,9-dihydro-5H-furo[2,3-f]pyrido[2,1-a]isoquinoline-8-carboxylic acid]
HBV (2.2.15 cells)
  pEC50: > 7.00
[1]
  CC50 at 3 days: > 25 µM

## CC(C)(C)[C@@H]1Cc2c(cc(-c3cn[nH]c3)c3occc23)-c2cc(=O)c(C(=O)O)cn21 [Example 27, (S)-5-(tert-butyl)-9-oxo-12-(1H-pyrazol-4-yl)-4,9-dihydro-5H-furo[3,2-f]pyrido[2,1-a]isoquinoline-8-carboxylic acid]
HBV (2.2.15 cells)
  pEC50: < 6.00

## Cn1ccc(-c2cc3c(c4occc24)C[C@@H](C(C)(C)C)n2cc(C(=O)O)c(=O)cc2-3)n1 [Example 16, (S)-5-(tert-butyl)-12-(1-methyl-1H-pyrazol-3-yl)-9-oxo-4,9-dihydro-5H-furo[2,3-f]pyrido[2,1-a]isoquinoline-8-carboxylic acid]
HBV (2.2.15 cells)
  pEC50: > 7.00
[1]
  CC50 at 3 days: 10 to 25 µM

## CC(C)(C)[C@@H]1Cc2c(cc(-c3ccco3)c3occc23)-c2cc(=O)c(C(=O)O)cn21 [Example 26, (S)-5-(tert-butyl)-12-(furan-2-yl)-9-oxo-4,9-dihydro-5H-furo[3,2-f]pyrido[2,1-a]isoquinoline-8-carboxylic acid]
HBV (2.2.15 cells)
  pEC50: < 6.00

## Cn1ccc(-c2cc3c(c4ccoc24)C[C@@H](C(C)(C)C)n2cc(C(=O)O)c(=O)cc2-3)n1 [Example 23, (S)-5-(tert-butyl)-12-(1-methyl-1H-pyrazol-3-yl)-9-oxo-4,9-dihydro-5H-furo[3,2-f]pyrido[2,1-a]isoquinoline-8-carboxylic acid]
HBV (2.2.15 cells)
  pEC50: < 6.00

## Cn1nccc1-c1cc2c(c3occc13)C[C@@H](C(C)(C)C)n1cc(C(=O)O)c(=O)cc1-2 [Example 14, (S)-5-(tert-butyl)-12-(1-methyl-1H-pyrazol-5-yl)-9-oxo-4,9-dihydro-5H-furo[2,3-f]pyrido[2,1-a]isoquinoline-8-carboxylic acid]
HBV (2.2.15 cells)
  pEC50: > 7.00
[1]
  CC50 at 3 days: > 25 µM

## CC(C)(C)[C@@H]1Cc2c(cc(-c3ccn[nH]3)c3ccoc23)-c2cc(=O)c(C(=O)O)cn21 [Example 6, (S)-5-(tert-butyl)-9-oxo-12-(1H-pyrazol-5-yl)-4,9-dihydro-5H-furo[2,3-f]pyrido[2,1-a]isoquinoline-8-carboxylic acid]
HBV (2.2.15 cells)
  pEC50: > 7.00
[1]
  CC50 at 3 days: 10 to 25 µM

## CC(C)(C)[C@@H]1Cc2c(cc(-c3cnco3)c3ccoc23)-c2cc(=O)c(C(=O)O)cn21 [Example 12, (S)-5-(tert-butyl)-12-(oxazol-5-yl)-9-oxo-4,9-dihydro-5H-furo[2,3-f]pyrido[2,1-a]isoquinoline-8-carboxylic acid]
HBV (2.2.15 cells)
  pEC50: > 7.00
[1]
  CC50 at 3 days: > 25 µM

## CC(C)(C)[C@@H]1Cc2c(cc(-c3cnco3)c3occc23)-c2cc(=O)c(C(=O)O)cn21 [Example 22, (S)-5-(tert-butyl)-12-(oxazol-5-yl)-9-oxo-4,9-dihydro-5H-furo[3,2-f]pyrido[2,1-a]isoquinoline-8-carboxylic acid]
HBV (2.2.15 cells)
  pEC50: 6.00 to 7.00

## CC(C)(C)[C@@H]1Cc2c(cc(-c3ccsc3)c3ccoc23)-c2cc(=O)c(C(=O)O)cn21 [Example 7, (S)-5-(tert-butyl)-9-oxo-12-(thiophen-3-yl)-4,9-dihydro-5H-furo[2,3-f]pyrido[2,1-a]isoquinoline-8-carboxylic acid]
HBV (2.2.15 cells)
  pEC50: > 7.00
[1]
  CC50 at 3 days: 10 to 25 µM

## CC(C)(C)[C@@H]1Cc2c(cc(-c3cccs3)c3ccoc23)-c2cc(=O)c(C(=O)O)cn21 [Example 10, (S)-5-(tert-butyl)-9-oxo-12-(thiophen-2-yl)-4,9-dihydro-5H-furo[2,3-f]pyrido[2,1-a]isoquinoline-8-carboxylic acid]
HBV (2.2.15 cells)
  pEC50: > 7.00
[1]
  CC50 at 3 days: 10 to 25 µM

## CC(C)(C)[C@@H]1Cc2c(cc(-c3cscn3)c3occc23)-c2cc(=O)c(C(=O)O)cn21 [Example 30, (S)-5-(tert-butyl)-9-oxo-12-(thiazol-4-yl)-4,9-dihydro-5H-furo[3,2-f]pyrido[2,1-a]isoquinoline-8-carboxylic acid]
HBV (2.2.15 cells)
  pEC50: < 6.00

## CC(C)(C)[C@@H]1Cc2c(cc(N3CCC(F)(F)C3)c3occc23)-c2cc(=O)c(C(=O)O)cn21 [Example 20, (S)-5-(tert-butyl)-12-(3,3-difluoropyrrolidin-1-yl)-9-oxo-4,9-dihydro-5H-furo[3,2-f]pyrido[2,1-a]isoquinoline-8-carboxylic acid]
HBV (2.2.15 cells)
  pEC50: 6.00 to 7.00

## CC(C)(C)[C@@H]1Cc2c(cc(-c3cccs3)c3occc23)-c2cc(=O)c(C(=O)O)cn21 [Example 24, (S)-5-(tert-butyl)-9-oxo-12-(thiophen-2-yl)-4,9-dihydro-5H-furo[3,2-f]pyrido[2,1-a]isoquinoline-8-carboxylic acid]
HBV (2.2.15 cells)
  pEC50: < 6.00

## CC(C)(C)[C@@H]1Cc2c(cc(-c3cnsc3)c3occc23)-c2cc(=O)c(C(=O)O)cn21 [Example 29, (S)-5-(tert-butyl)-12-(isothiazol-4-yl)-9-oxo-4,9-dihydro-5H-furo[3,2-f]pyrido[2,1-a]isoquinoline-8-carboxylic acid]
HBV (2.2.15 cells)
  pEC50: < 6.00

## CC(C)(C)[C@@H]1Cc2c(cc(-c3ccoc3)c3ccoc23)-c2cc(=O)c(C(=O)O)cn21 [Example 3, (S)-5-(tert-butyl)-12-(furan-3-yl)-9-oxo-4,9-dihydro-5H-furo[2,3-f]pyrido[2,1-a]isoquinoline-8-carboxylic acid]
HBV (2.2.15 cells)
  pEC50: > 7.00
[1]
  CC50 at 3 days: > 25 µM

## Cn1cc(-c2cc3c(c4ccoc24)C[C@@H](C(C)(C)C)n2cc(C(=O)O)c(=O)cc2-3)cn1 [Example 5, (S)-5-(tert-butyl)-12-(1-methyl-1H-pyrazol-4-yl)-9-oxo-4,9-dihydro-5H-furo[3,2-f]pyrido[2,1-a]isoquinoline-8-carboxylic acid]
HBV (2.2.15 cells)
  pEC50: < 6.00
[1]
  CC50 at 3 days: > 25 µM

## CC(C)(C)[C@@H]1Cc2c(cc(-c3ccoc3)c3occc23)-c2cc(=O)c(C(=O)O)cn21 [Example 13, (S)-5-(tert-butyl)-12-(furan-3-yl)-9-oxo-4,9-dihydro-5H-furo[3,2-f]pyrido[2,1-a]isoquinoline-8-carboxylic acid]
HBV (2.2.15 cells)
  pEC50: > 7.00
[1]
  CC50 at 3 days: 10 to 25 µM

## Cn1nccc1-c1cc2c(c3ccoc13)C[C@@H](C(C)(C)C)n1cc(C(=O)O)c(=O)cc1-2 [Example 4, (S)-5-(tert-butyl)-12-(1-methyl-1H-pyrazol-5-yl)-9-oxo-4,9-dihydro-5H-furo[3,2-f]pyrido[2,1-a]isoquinoline-8-carboxylic acid]
HBV (2.2.15 cells)
  pEC50: > 7.00

## CC(C)(C)[C@@H]1Cc2c(cc(-c3cscn3)c3ccoc23)-c2cc(=O)c(C(=O)O)cn21 [Example 17, (S)-5-(tert-butyl)-9-oxo-12-(thiazol-4-yl)-4,9-dihydro-5H-furo[2,3-f]pyrido[2,1-a]isoquinoline-8-carboxylic acid]
HBV (2.2.15 cells)
  pEC50: > 7.00
[1]
  CC50 at 3 days: > 25 µM

## CC(C)(C)[C@@H]1Cc2c(ccc3occc23)-c2cc(=O)c(C(=O)O)cn21 [Example 31, (S)-5-(tert-butyl)-9-oxo-4,9-dihydro-11-furo[3,2-f]pyrido[2,1-a]isoquinoline-8-carboxylic acid]
HBV (2.2.15 cells)
  pEC50: < 6.00
